Results: patent publication US12016682B2, “In-vivo monitoring of molecular targets” (The Regents of the University Of California, priority 2013, dated 2024)
{C7MB} = methylene blue on (CH2)7 linker; {C11SH} = thiol on (CH2)11 linker; {MB} = methylene blue redox label; {C6SH} = thiol on (CH2)6 linker

How the values were obtained:
[1] = DOX probe characterization: dose-response (affinity) and kinetic response by square-wave voltammetry; format: binding
Text: Aptamer probes were synthesized with the following sequences: DOX-probe: 5′-HS—(CH2)6-ACCATCTGTGTAAGGGGTAAGGGGTGGT-MB-3′ (SEQ ID NO: 1), Kanamycin-probe: 5′-HS—(CH2)6-GGGACTTGGTTTAGGTAATGAGTCCC-MB-3′ (SEQ ID NO: 2). DOX-probe is a truncated form of an anthracycline aptamer. A region of the aptamer suspected of supporting a hairpin structure was selected, with an apparent active binding site in the base. The stem was engineered to enable effective signal transduction through stabilization of the folded state. The kanamycin probe was adapted from that described in Rowe et al. Analytical chemistry 82, 7090-5 (2010). Each probe was thiolated at the 5′-end to facilitate self-assembly on the gold working electrodes, and conjugated with an MB redox label at the 3′-end to enable target binding-induced charge transfer modulation. Prior to probe immobilization, the gold electrodes were first cleaned via cyclic voltammetry, with twelve potential sweeps ranging from −0.8 to 0.9 V (with respect to the platinum reference electrode) applied at 0.1 V·s^−1 with a sample interval of 0.001 V and 10 μA sensitivity in 50 mM H2SO4. Subsequently, the chamber was flushed with DI water, followed by the addition of probe solution. The probe solution was prepared by adding 2 μL of 10 mM tris(2-carboxyethyl)phosphine (TCEP) to 1 μL of 200 μM probe stock and incubating at room temperature for 60 minutes to enable cleavage of disulphide bonds. The solution was then diluted to 2 μM in 1× saline-sodium citrate (SSC) buffer for effective self-assembly. The chip was incubated with probe solution for 1 hour at room temperature, permitting the thiolated aptamer to form a monolayer on the gold electrode surface. The chamber was then flushed with 5 mL DI water for 5 minutes, and the remaining electrode area was incubated for two hours in passivation solution, consisting of 1 μL of stock 6-mercaptohexanol diluted to 3 mM in DI water. The chamber was flushed again with DI water and filled with 1×SSC, after which the device was stored at 4° C. until use.
Electrochemical measurements were conducted with an electrochemical analyzer (730B, CH Instruments, Austin, TX). The chip was connected via 8-pin card-edge connector and subjected to SWV scans. Working electrodes were scanned in continuous succession with an average scan period of 8 seconds. To accommodate potential shifts due to the non-ideal on-chip pseudo-reference electrodes, a 400 mV potential range was scanned to reliably capture the MB redox peak. For optimal frequency determination for the KDM, frequency-sweep scans were performed from 5 Hz to 800 Hz, with amplitude of 25 mV. A custom peak-fitting script was created to fit the SWV measurements with a Gaussian curve on a hyperbolic baseline. Peak currents were then normalized to a baseline peak current to generate signal gain. Unless otherwise noted, all reported gains were obtained via KDM with the difference divided average of gains from 7.5 Hz and 75 Hz signals.
Probes were characterized in terms of affinity, specificity and kinetic response. For affinity measurements, a dose-response curve was obtained by subjecting the probe to DOX concentrations (for the DOX-probe) ranging from 50 nM to 10 μM in 1×SSC at a flow-rate of 1 mL·h^−1. At each concentration, the signal was permitted to equilibrate and then ten subsequent readings were obtained from two separate electrodes and averaged as the reported values. The same procedure was applied for specificity characterization, where DOX was injected at 1 μM while off-target reagents mitomycin-C (MTC), ifosfamide (Ifex), Mesna, dacarbazine (DTIC) or cisplatin (CDDP) were injected at 1 mM. […] Voltammograms were taken in immediate succession to provide maximal temporal resolution. Dose-response curves were obtained by fitting data to a one-site binding model, and kinetic-response curves were obtained by fitting data to a one-phase association and dissociation model. […]

[2] = Cocaine/procaine binding aptamer sensor step response to target in buffer and whole blood (SWV)
[3] = biphasic, cited from earlier work
[4] = humans; cited from earlier work
[5] = male, Sprague-Dawley, rat, in vivo
Protocol: (§1) All rats used in this work were Sprague-Dawley males from Charles River Laboratories (Hollister, CA, USA). To safely mount the device and catheters, rats were sedated throughout the duration of the experiment via isoflurane gas (1-4%) and ketamine/xylazine (56.25 mg·kg^−1 and 7.5 mg·kg^−1 respectively). Animals were placed dorsal side down on a heating pad. The right jugular vein was isolated and catheterized to provide an intravenous injection port. An initial injection of 0.41 mL heparin solution (1000 U·mL^−1 USP) was performed, followed by periodic injections of 0.1 mL every 40 minutes to prevent clot formation in the catheters. The left jugular vein was isolated and cannulated. A 0.3 mL pre-drug injection control blood sample was taken and set aside for the duration of the experiment. The end of a 10-cm length of Tygon® tubing (2.29-mm OD and 0.76-mm ID) was inserted into the cannula to connect the intravenous blood source to the blood port of the MEDIC device. […] Target concentrations were adjusted for a constant 0.3 mL injection volume, and injected via the input catheter in a 30-second bolus at >30 min intervals. Upon completion of each experiment, subjects were euthanized via intravenous Euthasol® injection. The MEDIC input tube was then redirected to the control blood to obtain post-experiment readings of zero-target blood samples.
(§2) A rat with a body surface area of 620 cm^2 was dosed with increasing DOX concentrations (0-2 mg·m^−2) over 4.5 hours (FIG. 12, Panel A).

[6] = Continuous real-time MEDIC measurement of in vivo DOX concentration in live rats; conditions: male, Sprague-Dawley, rat, 1 mg·m^−2, alpha-phase half-life t1/2^α
Protocol: as §1, §2

[7] = test system: DOX probe; assay: DOX probe specificity characterization against off-target chemotherapy agents; format: binding; conditions: 1,000× greater concentrations (1 mM vs DOX 1 μM), 1×SSC
Text: Probes were characterized in terms of affinity, specificity and kinetic response. […] At each concentration, the signal was permitted to equilibrate and then ten subsequent readings were obtained from two separate electrodes and averaged as the reported values. […] Voltammograms were taken in immediate succession to provide maximal temporal resolution. Dose-response curves were obtained by fitting data to a one-site binding model, and kinetic-response curves were obtained by fitting data to a one-phase association and dissociation model.

[8] = in vivo; conditions: male, Sprague-Dawley, rat, iv
Protocol: A calibration curve was obtained (FIG. 5), then doses of 32, 64 and 96 mg·kg^−1 were serially injected, followed by a baseline control.

[9] = stated, not measured here; cited from earlier work
[10] = after a 5 minute pulse of 600 nM DOX

5′-HS—(CH2)6-ACCATCTGTGTAAGGGGTAAGGGGTGGT-MB-3′ (ACCATCTGTGTAAGGGGTAAGGGGTGGT; DNA, 5' {C6SH}, 3' {MB}, backbone and methylation of C not given here) [DOX probe, truncated form of an anthracycline DNA aptamer, thiolated at the 5′-end, MB redox label at the 3′-end]
time to reach 90% saturation ([1]; DOX pulse): ≤ 45 s
time to return to 10% of baseline ([1]; after DOX pulse): ≤ 100 s
koff [1, 10]: 0.0225 ± 0.00083 s⁻¹
kon [1, 10]: 50000 ± 5830 M⁻¹ s⁻¹
dynamic range ([1]; in buffer): 0.1 to 10 µM
limit of detection (LOD) ([1]; in buffer): 10 nM
Kd ([1]; signal gain fitted to a Langmuir isotherm, DOX 50 nM to 10 μM in 1×SSC, read-out: apparent Kd): 0.824 µM

5′-HS—(CH2)11-AGACAAGGAAAATCCTTCAATGAAGTGGGTCG-(CH2)7-MB-3′ (AGACAAGGAAAATCCTTCAATGAAGTGGGTCG; DNA, 5' {C11SH}, 3' {C7MB}, backbone and methylation of C not given here) [cocaine/procaine binding aptamer, DNA aptamer thiolated on the 5′-end, methylene blue redox label at the 3′-end]
Kd [2]: ~190 µM
koff ([2]; 128 μM target in 1×SSC buffer): ~0.031 s⁻¹
kon ([2]; 128 μM target in 1×SSC buffer): ~160 M⁻¹ s⁻¹
signal gain ([2]; 128 μM target in 1×SSC buffer, before blood exposure): 60%
signal gain ([2]; 128 μM target in buffer after whole blood exposure): ~20%
signal gain ([2]; 128 μM target in whole blood, after ~1 h whole blood exposure at room temperature): ~10%
affinity for its target at 37° C. ([2]; 37° C.): loses affinity for its target
performance at room temperature ([2]; room temperature): performs well

C[C@@H]1[C@H](O)[C@@H](C)/C=C/C=C/C=C/C=C/C=C/C=C/C=C/[C@H](O[C@@H]2O[C@H](C)[C@@H](O)[C@H](N)[C@@H]2O)C[C@@H]2O[C@](O)(C[C@@H](O)C[C@@H](O)[C@H](O)CC[C@@H](O)C[C@@H](O)CC(=O)O[C@H]1C)C[C@H](O)[C@H]2C(=O)O [Amphotericin B]
half-life, initial phase ([3]; initial phase): 1440 min
half-life, second phase ([3]; second phase): 15 days

COc1cccc2c1C(=O)c1c(O)c3c(c(O)c1C2=O)C[C@@](O)(C(=O)CO)C[C@@H]3O[C@H]1C[C@H](N)[C@H](O)[C@H](C)O1 [DOX, doxorubicin]
alpha-phase plasma clearance time [4]: 6 to 26 min
Pearson correlation coefficient of t1/2^α as a function of body surface area [5]: −0.73
half-life ([6]; first of two injections of 1 mg·m^−2): 10.7 ± 0.5 min
half-life ([6]; second of two injections of 1 mg·m^−2): 10.8 ± 1 min

N.N.[Cl][Pt][Cl] [cisplatin]
sensor response to off-target drug [7]: did not respond

O=P1(NCCCl)OCCCN1CCCl (centres unmarked) [ifosfamide]
sensor response to off-target drug [7]: did not respond

NC[C@H]1O[C@H](O[C@H]2[C@H](O)[C@@H](O[C@H]3O[C@H](CO)[C@@H](O)[C@H](N)[C@H]3O)[C@H](N)C[C@@H]2N)[C@H](O)[C@@H](O)[C@@H]1O [kanamycin]
half-life ([8]; 32 mg/kg): 7.2 min
half-life ([8]; 64 mg/kg): 10 min
half-life ([8]; 96 mg/kg): 9 min
beta phase t1/2^β [9]: 120 to 180 min

O=S(=O)(O)CCS [mesna]
sensor response to off-target drug [7]: did not respond

CO[C@@]12[C@H](COC(N)=O)C3=C(C(=O)C(C)=C(N)C3=O)N1C[C@@H]1N[C@@H]12 [mitomycin-C]
sensor response to off-target drug [7]: did not respond
